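These data come from cells grown in 96-well plates and exposed to compound for 48 hours at five concentrations. The concentration for 50% growth inhibition is given as GI50.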 Calls of active or inactive are those of the source. No stated cut-off is given here; in the data, active = GI50 up to about 1.1 µM and inactive = higher.
Tests used:
Assay in all cases: NCI tumour cell line growth inhibition, 48 h
U-251 = tested on: U-251
OVCAR-8 = tested on: OVCAR-8
HCT-116 = tested on: HCT-116
SF-295 = tested on: SF-295
HOP-92 = tested on: HOP-92
OVCAR-4 = tested on: OVCAR-4
SW-620 = tested on: SW-620
RXF 393 = tested on: RXF 393
UACC-62 = tested on: UACC-62
NCI-H23 = tested on: NCI-H23
PC-3 = tested on: PC-3
HCC 2998 = tested on: HCC 2998
ACHN = tested on: ACHN
MDA-MB-435 = tested on: MDA-MB-435
Malme-3M = tested on: Malme-3M
UACC-257 = tested on: UACC-257
SK-OV-3 = tested on: SK-OV-3
SK-MEL-2 = tested on: SK-MEL-2
KM12 = tested on: KM12
HT-29 = tested on: HT-29

Compound | GI50 (U-251) | GI50 (OVCAR-8) | GI50 (HCT-116) | GI50 (SF-295) | GI50 (HOP-92) | GI50 (OVCAR-4) | GI50 (SW-620) | GI50 (RXF 393) | GI50 (UACC-62) | GI50 (NCI-H23) | GI50 (PC-3) | GI50 (HCC 2998) | GI50 (ACHN) | GI50 (MDA-MB-435) | GI50 (Malme-3M) | GI50 (UACC-257) | GI50 (SK-OV-3) | GI50 (SK-MEL-2) | GI50 (KM12) | GI50 (HT-29)
CCOC(=O)/C=C(/C(=O)OCC)n1ccc(=O)n(CC(=O)OCC)c1=O | 2.56 µM (inactive) | 2.39 µM (inactive) | 1.01 µM (active) | 14 µM (inactive) | 0.251 µM (active) | 1.84 µM (inactive) | 0.265 µM (active) | 1.15 µM (inactive) | 1.64 µM (inactive) | 1.78 µM (inactive) | 1.67 µM (inactive) | 2.36 µM (inactive) | 0.57 µM (active) | 1.64 µM (inactive) | 0.668 µM (active) | 2.44 µM (inactive) | 14.4 µM (inactive) | 4.65 µM (inactive) | 2.57 µM (inactive) | 1.58 µM (inactive)
N#Cc1c(N)nc2c(C#N)c(N)cc3c2c1Oc1ccccc1-3 | > 100 µM (inactive) | > 100 µM (inactive) | > 100 µM (inactive) | > 100 µM (inactive) | > 100 µM (inactive) | > 100 µM (inactive) | > 100 µM (inactive) | > 100 µM (inactive) | > 100 µM (inactive) | > 100 µM (inactive) | > 100 µM (inactive) | > 100 µM (inactive) | > 100 µM (inactive) | > 100 µM (inactive) | > 100 µM (inactive) | > 100 µM (inactive) | > 100 µM (inactive) | > 100 µM (inactive) | 74 µM (inactive) | > 100 µM (inactive)
CC(C)N1CCN(c2ccncc2S(=O)(=O)N2CCCCC2)CC1 | > 100 µM (inactive) | > 100 µM (inactive) | > 100 µM (inactive) | > 100 µM (inactive) | > 100 µM (inactive) | > 100 µM (inactive) | > 100 µM (inactive) | > 100 µM (inactive) | > 100 µM (inactive) | > 100 µM (inactive) | > 100 µM (inactive) | > 100 µM (inactive) | > 100 µM (inactive) | > 100 µM (inactive) | > 100 µM (inactive) | > 100 µM (inactive) | > 100 µM (inactive) | > 100 µM (inactive) | > 100 µM (inactive) | > 100 µM (inactive)
[N-]=[N+]=CC(=O)OCCCCl | > 100 µM (inactive) |  | > 100 µM (inactive) | > 100 µM (inactive) | > 100 µM (inactive) | > 100 µM (inactive) | > 100 µM (inactive) | > 100 µM (inactive) | > 100 µM (inactive) | > 100 µM (inactive) | > 100 µM (inactive) | > 100 µM (inactive) | > 100 µM (inactive) | > 100 µM (inactive) | > 100 µM (inactive) | > 100 µM (inactive) | > 100 µM (inactive) | > 100 µM (inactive) | > 100 µM (inactive) | > 100 µM (inactive)
CC1/C(=N/O)CC(c2ccccc2)N(N=O)C1c1ccccc1 (stereo unspecified) | > 100 µM (inactive) | > 100 µM (inactive) | > 100 µM (inactive) | > 100 µM (inactive) | > 100 µM (inactive) | > 100 µM (inactive) | > 100 µM (inactive) | > 100 µM (inactive) | > 100 µM (inactive) | > 100 µM (inactive) | > 100 µM (inactive) | > 100 µM (inactive) | > 100 µM (inactive) | > 100 µM (inactive) | > 100 µM (inactive) | > 100 µM (inactive) | 82.4 µM (inactive) | > 100 µM (inactive) | > 100 µM (inactive) | > 100 µM (inactive)
O=P1(C(O)/C=C/c2ccccc2)N(Cc2ccccc2)[C@@H]2CCCC[C@H]2N1Cc1ccccc1 (stereo partly specified) | 4.21 µM (inactive) | 3.74 µM (inactive) | 3.54 µM (inactive) | 4.42 µM (inactive) | 2.7 µM (inactive) | 5.38 µM (inactive) | 6.87 µM (inactive) | 7.29 µM (inactive) | 6.98 µM (inactive) | 4.26 µM (inactive) | 3.14 µM (inactive) | 3.9 µM (inactive) | 3.94 µM (inactive) | 3.67 µM (inactive) | 2.98 µM (inactive) | 4.32 µM (inactive) | 24 µM (inactive) | 2.62 µM (inactive) | 4.66 µM (inactive) | 3.67 µM (inactive)
C=CC(=O)N1C/C(=C\c2ccc([N+](=O)[O-])cc2)C(=O)/C(=C/c2ccc([N+](=O)[O-])cc2)C1 | 0.0697 µM (active) | < 0.0391 µM (active) | < 0.017 µM (active) | 0.208 µM (active) | 0.811 µM (active) | 0.233 µM (active) | 0.0304 µM (active) | 0.142 µM (active) | 0.21 µM (active) | 0.256 µM (active) | 0.0698 µM (active) | 0.161 µM (active) | 0.16 µM (active) | 0.254 µM (active) | 0.201 µM (active) | 0.794 µM (active) | 1.52 µM (inactive) | 0.43 µM (active) | 0.175 µM (active) | < 0.0176 µM (active)
COc1ccc(/C=C(\C#N)c2nc(-c3cc4ccccc4oc3=O)cs2)cc1 | 13.5 µM (inactive) | 18.1 µM (inactive) | 32.3 µM (inactive) | 21.9 µM (inactive) | 18.3 µM (inactive) | 23.9 µM (inactive) | 19.7 µM (inactive) | 21.1 µM (inactive) | 22.7 µM (inactive) |  | 47.8 µM (inactive) | 32.6 µM (inactive) | 19 µM (inactive) | 37.8 µM (inactive) | 20.1 µM (inactive) | 31.8 µM (inactive) | 16.4 µM (inactive) | 33.3 µM (inactive) | 24.3 µM (inactive) | 41.3 µM (inactive)
CNC(=S)N/N=C1\C(=O)N(CN2CCOCC2)c2ccc([N+](=O)[O-])cc21 | 14.7 µM (inactive) |  | 15.4 µM (inactive) | 18.2 µM (inactive) | 21.3 µM (inactive) | 14.8 µM (inactive) | 28.2 µM (inactive) | 16.4 µM (inactive) | 15.3 µM (inactive) | 17.7 µM (inactive) | 22.1 µM (inactive) | 14.9 µM (inactive) | 17.5 µM (inactive) | 60.3 µM (inactive) | 16.1 µM (inactive) | 25.4 µM (inactive) | 16.8 µM (inactive) | 6.5 µM (inactive) | 22.8 µM (inactive) | 40.6 µM (inactive)
Cc1n[nH]c(C(F)(F)F)c1/N=N/N(C)C | 11 µM (inactive) | 11.1 µM (inactive) | 1.93 µM (inactive) | 12.1 µM (inactive) | 8.32 µM (inactive) |  | > 100 µM (inactive) | 13 µM (inactive) | 6.81 µM (inactive) | 5.73 µM (inactive) | 11.1 µM (inactive) | 14 µM (inactive) | 4.72 µM (inactive) | 14.5 µM (inactive) | 16.6 µM (inactive) | 14.7 µM (inactive) | 12.5 µM (inactive) | 17.2 µM (inactive) | 7.57 µM (inactive) | 4.98 µM (inactive)
Cc1ccc([N+](=O)[O-])cc1S(=O)(=O)Nc1ccc(C(=O)/C=C/c2ccccc2)cc1 |  | 23.2 µM (inactive) | 15.7 µM (inactive) | 20.3 µM (inactive) | 15.9 µM (inactive) | 1.96 µM (inactive) | 24.7 µM (inactive) | 11.4 µM (inactive) | 13.2 µM (inactive) | 16.7 µM (inactive) | 15.6 µM (inactive) | 17.7 µM (inactive) | 13.2 µM (inactive) | 19.6 µM (inactive) | 18.5 µM (inactive) | 17.3 µM (inactive) | 31.3 µM (inactive) | 19.1 µM (inactive) | 16.7 µM (inactive) | 25.4 µM (inactive)
COC(=O)c1c(O)ccc2c1c1c(n2Cc2ccccn2)C(=O)c2ccccc2C1=O | 35.7 µM (inactive) | 50.4 µM (inactive) | 79.8 µM (inactive) | 20.2 µM (inactive) | 26.5 µM (inactive) |  |  | 52.5 µM (inactive) | > 100 µM (inactive) | 57.1 µM (inactive) | 58.7 µM (inactive) | 13.2 µM (inactive) | 18.5 µM (inactive) | 86.7 µM (inactive) | 31.2 µM (inactive) | > 100 µM (inactive) | 21.7 µM (inactive) | 42.7 µM (inactive) | 46.2 µM (inactive) | 4.22 µM (inactive)
COc1cc(N(CCC#N)CCC#N)ccc1C(/N=N/c1ccccc1C)=N\NC(=O)c1ccc(C)cc1 | 42.3 µM (inactive) | 71 µM (inactive) | 36.1 µM (inactive) | > 100 µM (inactive) | 53.8 µM (inactive) | 59.8 µM (inactive) | 72.9 µM (inactive) | > 100 µM (inactive) | 43.4 µM (inactive) | 91.8 µM (inactive) | 59.3 µM (inactive) | 85.3 µM (inactive) |  | 29.3 µM (inactive) | 34.7 µM (inactive) | 61.2 µM (inactive) | > 100 µM (inactive) | 43.9 µM (inactive) | 49.1 µM (inactive) | 85.3 µM (inactive)
CCc1nc(N)nc(N)c1-c1ccc(Cl)c(Cl)c1 [ETOPRINE] | 2.79 µM (inactive) |  | 0.574 µM (active) | 0.738 µM (active) | 13.3 µM (inactive) | > 100 µM (inactive) | 5.32 µM (inactive) | 59.3 µM (inactive) | 0.711 µM (active) | 2.74 µM (inactive) | 34.5 µM (inactive) | 12.4 µM (inactive) | 2.86 µM (inactive) | 0.818 µM (active) | 5.79 µM (inactive) | 8.38 µM (inactive) | > 100 µM (inactive) | 23.4 µM (inactive) | 8.51 µM (inactive) | 0.879 µM (active)
